Data as given in patent publication US20210188856A1, “CRYSTAL FORM OF HYDROCHLORIDE OF PYRAZOLOHETEROARYL DERIVATIVE AND PREPARATION METHOD” (JIANGSU HENGRUI MEDICINE CO., LTD., priority 2018, published 2021).

Experiment: Influencing factors stability (heating, light illumination, high humidity; spread and uncovered, 20 days)
Assay type: physicochemical
Conditions: for Maximum single impurity / Purity / Total impurities: monohydrochloride; for stability under the influencing factor conditions (in words): light illumination
Procedure: Example 6: the crystal form I of the dihydrochloride salt of the compound represented by formula (I) (example 1) was spread and uncovered, and the steadily of the sample was evaluated under heating (40° C., 60° C.), light illumination (4500 Lux), and high humidity (RH 75%, RH 90%) with a period of 20 days.
(§1) Example 10: the crystal form A (example 7) of the monohydrochloride salt of the compound of formula (I) was spread and uncovered, and the stability of the sample was evaluated under heating (40° C., 60° C.), light illumination (4500 Lux), high humidity (RH 75%, RH 90%) conditions with a period of 20 days.
as §1, with “Example 11:” for “Example 10:”, “form B” for “form A (example 7)”, “compound represented by” for “compound of”, “(I) (example 8)” for “(I)”
as §1, with “Example 12:” for “Example 10:”, “form C” for “form A (example 7)”, “compound represented by” for “compound of”, “(I) (example 9)” for “(I)”

[1] = light illumination (4500 Lux), 4 days
[2] = light illumination (4500 Lux), 10 days
[3] = light illumination (4500 Lux), 20 days
[4] = 40° C., 60° C., 75% RH, 90% RH, 20 days

CCCCOc1nc(N)c2cnn(Cc3ccc(CN4CCCC4)cc3)c2n1.Cl [crystal form A, 6-butoxy-1-(4-(pyrrolidin-1-ylmethyl)benzyl)-1H-pyrazolo[3,4-d]pyrimidin-4-amine monohydrochloride]
Maximum single impurity (0 day): 0.09% | Purity (0 day): 99.74% | Total impurities (0 day): 0.26% | Maximum single impurity (40° C., 4 days): 0.09% | Purity (40° C., 4 days): 99.72% | Total impurities (40° C., 4 days): 0.28% | Maximum single impurity (40° C., 10 days): 0.06% | Purity (40° C., 10 days): 99.72% | Total impurities (40° C., 10 days): 0.28% | Maximum single impurity (40° C., 20 days): 0.06% | Purity (40° C., 20 days): 99.70% | Total impurities (40° C., 20 days): 0.30% | Maximum single impurity (60° C., 4 days): 0.08% | Purity (60° C., 4 days): 99.72% | Total impurities (60° C., 4 days): 0.28% | Maximum single impurity (60° C., 10 days): 0.06% | Purity (60° C., 10 days): 99.75% | Total impurities (60° C., 10 days): 0.25% | Maximum single impurity (60° C., 20 days): 0.06% | Purity (60° C., 20 days): 99.70% | Total impurities (60° C., 20 days): 0.30% | Maximum single impurity (75% RH, 4 days): 0.09% | Purity (75% RH, 4 days): 99.72% | Total impurities (75% RH, 4 days): 0.28% | Maximum single impurity (75% RH, 10 days): 0.06% | Purity (75% RH, 10 days): 99.74% | Total impurities (75% RH, 10 days): 0.26% | Maximum single impurity (75% RH, 20 days): 0.08% | Purity (75% RH, 20 days): 99.68% | Total impurities (75% RH, 20 days): 0.32% | Maximum single impurity (90% RH, 4 days): 0.08% | Purity (90% RH, 4 days): 99.72% | Total impurities (90% RH, 4 days): 0.28% | Maximum single impurity (90% RH, 10 days): 0.06% | Purity (90% RH, 10 days): 99.76% | Total impurities (90% RH, 10 days): 0.24% | Maximum single impurity (90% RH, 20 days): 0.08% | Purity (90% RH, 20 days): 99.72% | Total impurities (90% RH, 20 days): 0.28% | Maximum single impurity [1]: 0.09% | Purity [1]: 99.70% | Total impurities [1]: 0.30% | Maximum single impurity [2]: 0.06% | Purity [2]: 99.75% | Total impurities [2]: 0.25% | Maximum single impurity [3]: 0.08% | Purity [3]: 99.63% | Total impurities [3]: 0.37% | stability under the influencing factor conditions (in words) [4]: good

CCCCOc1nc(N)c2cnn(Cc3ccc(CN4CCCC4)cc3)c2n1.Cl [crystal form B, 6-butoxy-1-(4-(pyrrolidin-1-ylmethyl)benzyl)-1H-pyrazolo[3,4-d]pyrimidin-4-amine monohydrochloride]
Maximum single impurity (0 day): 0.10% | Purity (0 day): 99.54% | Total impurities (0 day): 0.46% | Maximum single impurity (40° C., 4 days): 0.19% | Purity (40° C., 4 days): 99.31% | Total impurities (40° C., 4 days): 0.69% | Maximum single impurity (40° C., 10 days): 0.10% | Purity (40° C., 10 days): 99.53% | Total impurities (40° C., 10 days): 0.47% | Maximum single impurity (40° C., 20 days): 0.14% | Purity (40° C., 20 days): 99.39% | Total impurities (40° C., 20 days): 0.61% | Maximum single impurity (60° C., 4 days): 0.14% | Purity (60° C., 4 days): 99.34% | Total impurities (60° C., 4 days): 0.66% | Maximum single impurity (60° C., 10 days): 0.10% | Purity (60° C., 10 days): 99.42% | Total impurities (60° C., 10 days): 0.58% | Maximum single impurity (60° C., 20 days): 0.10% | Purity (60° C., 20 days): 99.21% | Total impurities (60° C., 20 days): 0.79% | Maximum single impurity (75% RH, 4 days): 0.11% | Purity (75% RH, 4 days): 99.54% | Total impurities (75% RH, 4 days): 0.46% | Maximum single impurity (75% RH, 10 days): 0.10% | Purity (75% RH, 10 days): 99.61% | Total impurities (75% RH, 10 days): 0.39% | Maximum single impurity (75% RH, 20 days): 0.10% | Purity (75% RH, 20 days): 99.57% | Total impurities (75% RH, 20 days): 0.43% | Maximum single impurity (90% RH, 4 days): 0.10% | Purity (90% RH, 4 days): 99.54% | Total impurities (90% RH, 4 days): 0.46% | Maximum single impurity (90% RH, 10 days): 0.10% | Purity (90% RH, 10 days): 99.61% | Total impurities (90% RH, 10 days): 0.39% | Maximum single impurity (90% RH, 20 days): 0.10% | Purity (90% RH, 20 days): 99.59% | Total impurities (90% RH, 20 days): 0.41% | Maximum single impurity [1]: 0.10% | Purity [1]: 99.51% | Total impurities [1]: 0.49% | Maximum single impurity [2]: 0.10% | Purity [2]: 99.56% | Total impurities [2]: 0.44% | Maximum single impurity [3]: 0.11% | Purity [3]: 99.45% | Total impurities [3]: 0.55% | stability under the influencing factor conditions (in words) [4]: good

CCCCOc1nc(N)c2cnn(Cc3ccc(CN4CCCC4)cc3)c2n1.Cl [crystal form C, 6-butoxy-1-(4-(pyrrolidin-1-ylmethyl)benzyl)-1H-pyrazolo[3,4-d]pyrimidin-4-amine monohydrochloride]
Maximum single impurity (0 day): 0.10% | Purity (0 day): 99.55% | Total impurities (0 day): 0.45% | Maximum single impurity (40° C., 4 days): 0.10% | Purity (40° C., 4 days): 99.55% | Total impurities (40° C., 4 days): 0.45% | Maximum single impurity (40° C., 10 days): 0.10% | Purity (40° C., 10 days): 99.60% | Total impurities (40° C., 10 days): 0.40% | Maximum single impurity (40° C., 20 days): 0.10% | Purity (40° C., 20 days): 99.53% | Total impurities (40° C., 20 days): 0.47% | Maximum single impurity (60° C., 4 days): 0.10% | Purity (60° C., 4 days): 99.50% | Total impurities (60° C., 4 days): 0.50% | Maximum single impurity (60° C., 10 days): 0.10% | Purity (60° C., 10 days): 99.58% | Total impurities (60° C., 10 days): 0.42% | Maximum single impurity (60° C., 20 days): 0.13% | Purity (60° C., 20 days): 99.42% | Total impurities (60° C., 20 days): 0.58% | Maximum single impurity (75% RH, 4 days): 0.11% | Purity (75% RH, 4 days): 99.55% | Total impurities (75% RH, 4 days): 0.45% | Maximum single impurity (75% RH, 10 days): 0.09% | Purity (75% RH, 10 days): 99.61% | Total impurities (75% RH, 10 days): 0.39% | Maximum single impurity (75% RH, 20 days): 0.10% | Purity (75% RH, 20 days): 99.57% | Total impurities (75% RH, 20 days): 0.43% | Maximum single impurity (90% RH, 4 days): 0.11% | Purity (90% RH, 4 days): 99.51% | Total impurities (90% RH, 4 days): 0.49% | Maximum single impurity (90% RH, 10 days): 0.10% | Purity (90% RH, 10 days): 99.61% | Total impurities (90% RH, 10 days): 0.39% | Maximum single impurity (90% RH, 20 days): 0.10% | Purity (90% RH, 20 days): 99.58% | Total impurities (90% RH, 20 days): 0.42% | Maximum single impurity [1]: 0.11% | Purity [1]: 99.57% | Total impurities [1]: 0.43% | Maximum single impurity [2]: 0.09% | Purity [2]: 99.64% | Total impurities [2]: 0.36% | Maximum single impurity [3]: 0.10% | Purity [3]: 99.54% | Total impurities [3]: 0.46% | stability under the influencing factor conditions (in words) [4]: good
